From patent publication US11254663B2 (BRISTOL-MYERS SQUIBB COMPANY, priority 2019, dated 2022)
pEC50: −log10 of the molar value.

test system: not given; test: not given; conditions: patients with NASH, 72-week clinical trial; cited from earlier work

Row | SMILES | hepatic steatosis, lobular inflammation, hepatocyte ballooning, and fibrosis as assessed by histological analyses of liver biopsies
1 | CC[C@H]1[C@@H](O)[C@@H]2[C@H](CC[C@]3(C)[C@@H]([C@H](C)CCC(=O)O)CC[C@@H]23)[C@@]2(C)CC[C@@H](O)C[C@@H]12 [OCA, obeticholic acid] | statistically significantly improved hepatic steatosis, lobular inflammation, hepatocyte ballooning, and fibrosis

test system: not given; test: not given; conditions: T2DM patients with NAFLD, 6-week clinical trial; cited from earlier work

Row | SMILES | body weight | insulin sensitivity
2 | CC[C@H]1[C@@H](O)[C@@H]2[C@H](CC[C@]3(C)[C@@H]([C@H](C)CCC(=O)O)CC[C@@H]23)[C@@]2(C)CC[C@@H](O)C[C@@H]12 [OCA, obeticholic acid] | reduced body weight | statistically significantly improved insulin sensitivity

target: FXR (Homo sapiens (Human), UniProt Q96RI1); test: FXR EC50 (FXR agonist potency reported with each Example); type: cell-based; conditions: not given
Sequence (Q96RI1 262-486): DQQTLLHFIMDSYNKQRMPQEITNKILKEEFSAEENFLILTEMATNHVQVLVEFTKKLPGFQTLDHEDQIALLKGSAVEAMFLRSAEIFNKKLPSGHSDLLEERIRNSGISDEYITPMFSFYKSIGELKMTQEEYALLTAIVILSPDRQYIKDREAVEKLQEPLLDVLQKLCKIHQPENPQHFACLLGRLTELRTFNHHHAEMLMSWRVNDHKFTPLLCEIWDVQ

Row | SMILES | pEC50
3 | CC1(c2nc(-c3cccc(N(CC45CCC(c6noc(C7(C)COC7)n6)(CC4)CC5)C(=O)C45CC(F)(C4)C5)c3)no2)CC1 [Example 180, 3-fluoro-N-(3-(5-(1-methylcyclopropyl)-1,2,4-oxadiazol-3-yl)phenyl)-N-((4-(5-(3-methyloxetan-3-yl)-1,2,4-oxadiazol-3-yl)bicyclo[2.2.2]octan-1-yl)methyl) bicyclo[1.1.1]pentane-1-carboxamide] | 7.08
4 | O=C(C1CCC1)N(CC12CCC(c3nc(CC4CC4)no3)(CC1)CC2)c1cccc(-c2nc(CC3CC3)no2)c1 [Example 64, N-((4-(3-(cyclopropylmethyl)-1,2,4-oxadiazol-5-yl)bicyclo[2.2.2]octan-1-yl)methyl)-N-(3-(3-(cyclopropylmethyl)-1,2,4-oxadiazol-5-yl)phenyl)cyclobutanecarboxamide] | 6.28
5 | CCc1noc(-c2cccc(N(CC34CCC(c5ccc(C(C)(C)C#N)cc5)(CC3)OC4)C(=O)C34CC(F)(C3)C4)c2)n1 [Example 47, N-((1-(4-(2-cyanopropan-2-yl)phenyl)-2-oxabicyclo[2.2.2]octan-4-yl)methyl)-N-(3-(3-ethyl-1,2,4-oxadiazol-5-yl)phenyl)-3-fluorobicyclo[1.1.1]pentane-1-carboxamide] | 6.52
6 | O=C(N(CC12CCC(c3ccc(C(F)(F)F)cn3)(CC1)CC2)c1cccc(-c2noc(C3CC3)n2)c1)C12CC(F)(C1)C2 [Example 185, N-(3-(5-cyclopropyl-1,2,4-oxadiazol-3-yl)phenyl)-3-fluoro-N-((4-(5-(trifluoromethyl)pyridin-2-yl)bicyclo[2.2.2]octan-1-yl)methyl)bicyclo[1.1.1]pentane-1-carboxamide] | 6.29
7 | Cn1nc(C23CCC(CN(C(=O)C4CC(F)(F)C4)c4cccc(-c5nc(C6CC6)no5)c4)(CC2)CC3)cc1C1CC1 [Example 125, N-(3-(3-cyclopropyl-1,2,4-oxadiazol-5-yl)phenyl)-N-((4-(5-cyclopropyl-1-methyl-1H-pyrazol-3-yl)bicyclo[2.2.2]octan-1-yl)methyl)-3,3-difluorocyclobutane-1-carboxamide] | 6.32
8 | Cn1nc(C2CC2)cc1C12CCC(CN(C(=O)C34CC(F)(C3)C4)c3cccc(-c4noc(C(C)(C)C)n4)c3)(CC1)CC2 [Example 165, N-(3-(5-(tert-butyl)-1,2,4-oxadiazol-3-yl)phenyl)-N-((4-(3-cyclopropyl-1-methyl-1H-pyrazol-5-yl)bicyclo[2.2.2]octan-1-yl)methyl)-3-fluorobicyclo[1.1.1]pentane-1-carboxamide] | 6.91
9 | O=C(N(CC12CCC(c3nnc(C4CC4)o3)(CC1)CC2)c1cccc(-c2nnc(C3CC3)o2)c1)C12CC(F)(C1)C2 [Example 136, N-((4-(5-cyclopropyl-1,3,4-oxadiazol-2-yl)bicyclo[2.2.2]octan-1-yl)methyl)-N-(3-(5-cyclopropyl-1,3,4-oxadiazol-2-yl)phenyl)-3-fluorobicyclo[1.1.1]pentane-1-carboxamide] | 6.85
10 | CCn1cc(-c2cccc(N(CC34CCC(c5nc(C6CC6)no5)(CC3)CC4)C(=O)C3CC(F)(F)C3)c2)oc1=O [Example 81, N-((4-(3-cyclopropyl-1,2,4-oxadiazol-5-yl)bicyclo[2.2.2]octan-1-yl)methyl)-N-(3-(3-ethyl-2-oxo-2,3-dihydrooxazol-5-yl)phenyl)-3,3-difluorocyclobutane-1-carboxamide] | 6.02

Results, then the compound that gave them:

Row | pEC50 | SMILES
11 | 6.62 | CCOc1ccnc(-c2cccc(N(CC34CCC(c5nc(C6CC6)no5)(CC3)CC4)C(=O)C34CC(F)(C3)C4)c2)c1 [Example 225, N-((4-(3-cyclopropyl-1,2,4-oxadiazol-5-yl)bicyclo[2.2.2]octan-1-yl)methyl)-N-(3-(4-ethoxypyridin-2-yl)phenyl)-3-fluorobicyclo[1.1.1]pentane-1-carboxamide]
12 | 7.31 | CC(C)(C)c1nc(C23CCC(CN(C(=O)C45CC(F)(C4)C5)c4cncc(-c5nc(C6CC6)no5)c4)(CC2)CC3)no1 [Example 206, N-((4-(5-(tert-butyl)-1,2,4-oxadiazol-3-yl)bicyclo[2.2.2]octan-1-yl)methyl)-N-(5-(3-cyclopropyl-1,2,4-oxadiazol-5-yl)pyridin-3-yl)-3-fluorobicyclo[1.1.1]pentane-1-carboxamide]
13 | 6.59 | CC(C)(O)c1nc(-c2cccc(N(CC34CCC(c5nc(C6CC6)no5)(CC3)CC4)C(=O)C34CC(F)(C3)C4)c2)cs1 [Example 31, N-((4-(3-cyclopropyl-1,2,4-oxadiazol-5-yl)bicyclo[2.2.2]octan-1-yl)methyl)-3-fluoro-N-(3-(2-(2-hydroxypropan-2-yl)thiazol-4-yl)phenyl)bicyclo[1.1.1]pentane-1-carboxamide]
14 | 7.40 | CC(C)(C)c1noc(C23CCC(CN(C(=O)C45CC(F)(C4)C5)c4cccc(-c5noc(C6(C)COC6)n5)c4)(CC2)CC3)n1 [Example 174, N-((4-(3-(tert-butyl)-1,2,4-oxadiazol-5-yl)bicyclo[2.2.2]octan-1-yl)methyl)-3-fluoro-N-(3-(5-(3-methyloxetan-3-yl)-1,2,4-oxadiazol-3-yl)phenyl)bicyclo[1.1.1]pentane-1-carboxamide]
15 | 6.75 | O=C(N(CC12CCC(c3noc(C45CC(F)(C4)C5)n3)(CC1)CC2)c1cccc(-c2nc(C3CC3)no2)c1)C12CC(F)(C1)C2 [Example 114, N-(3-(3-cyclopropyl-1,2,4-oxadiazol-5-yl)phenyl)-3-fluoro-N-((4-(5-(3-fluorobicyclo[1.1.1]pentan-1-yl)-1,2,4-oxadiazol-3-yl)bicyclo[2.2.2]octan-1-yl)methyl)bicyclo[1.1.1]pentane-1-carboxamide]
